Assay: mn = molality of the nth substance listed, in mol/kg
Details: 101 kPa, Liquid; for molar conductivity: Alternating current cell with electrodes; for mass density: Vibrating tube method

Cc1cccc(C(=O)O)c1[O-].[Na+] [sodium 2-hydroxy-3-methylbenzoate] + O
Details | mass density, 298.15 K [kg/m3] | molar conductivity, 278.15 K [S·m2/mol] | molar conductivity, 283.15 K [S·m2/mol] | molar conductivity, 288.15 K [S·m2/mol] | molar conductivity, 293.15 K [S·m2/mol] | molar conductivity, 298.15 K [S·m2/mol] | molar conductivity, 303.15 K [S·m2/mol] | molar conductivity, 308.15 K [S·m2/mol] | molar conductivity, 313.15 K [S·m2/mol]
m1 = 0.0001789 | – | 0.004702 | 0.005436 | 0.006213 | 0.007035 | 0.007891 | 0.008781 | 0.009702 | 0.01065
m1 = 0.0004159 | – | 0.004659 | 0.005386 | 0.006159 | 0.006975 | 0.007824 | 0.008709 | 0.009625 | 0.01056
m1 = 0.0007115 | – | 0.004632 | 0.005354 | 0.006119 | 0.006928 | 0.007773 | 0.008653 | 0.009562 | 0.01049
m1 = 0.001003 | – | 0.004611 | 0.00533 | 0.006091 | 0.006896 | 0.007731 | 0.008606 | 0.009511 | 0.01044
m1 = 0.001322 | – | 0.004591 | 0.005306 | 0.00606 | 0.006862 | 0.007698 | 0.00857 | 0.00947 | 0.0104
m1 = 0.001698 | – | 0.004566 | 0.005277 | 0.006032 | 0.00683 | 0.007665 | 0.008535 | 0.009432 | 0.01036
m1 = 0.002088 | – | 0.004547 | 0.005256 | 0.006008 | 0.006803 | 0.007632 | 0.008498 | 0.009395 | 0.01031
m1 = 0.002646 | – | 0.004526 | 0.005232 | 0.005981 | 0.006772 | 0.007599 | 0.008457 | 0.009327 | 0.01024
m1 = 0.003288 | – | 0.004504 | 0.005206 | 0.005951 | 0.006738 | 0.007542 | 0.008399 | 0.009286 | 0.0102
m1 = 0.004113 | – | 0.004483 | 0.005178 | 0.005905 | 0.006688 | 0.007504 | 0.008356 | 0.00924 | 0.01015
m1 = 0.005007 | 997.408 | 0.004457 | 0.00514 | 0.005873 | 0.00665 | 0.007462 | 0.008307 | 0.009184 | 0.01009
m1 = 0.09201 | 1003.59 | – | – | – | – | – | – | – | –

Cc1ccc(C(=O)[O-])c(O)c1.[Na+] [sodium 2-hydroxy-4-methylbenzoate] + O
Details | mass density, 298.15 K [kg/m3] | molar conductivity, 278.15 K [S·m2/mol] | molar conductivity, 283.15 K [S·m2/mol] | molar conductivity, 288.15 K [S·m2/mol] | molar conductivity, 293.15 K [S·m2/mol] | molar conductivity, 298.15 K [S·m2/mol] | molar conductivity, 303.15 K [S·m2/mol] | molar conductivity, 308.15 K [S·m2/mol] | molar conductivity, 313.15 K [S·m2/mol]
m1 = 0.0008766 | – | 0.004463 | 0.005159 | 0.005899 | 0.006679 | 0.007495 | 0.008345 | 0.009213 | 0.01012
m1 = 0.001205 | – | 0.004451 | 0.005145 | 0.00588 | 0.006648 | 0.007462 | 0.008308 | 0.009184 | 0.01008
m1 = 0.001572 | – | 0.004436 | 0.005122 | 0.005855 | 0.006629 | 0.007439 | 0.008283 | 0.009158 | 0.01005
m1 = 0.001976 | – | 0.004416 | 0.005105 | 0.005835 | 0.006608 | 0.007414 | 0.008258 | 0.009136 | 0.01003
m1 = 0.002453 | – | 0.004401 | 0.005087 | 0.005815 | 0.006584 | 0.007387 | 0.008225 | 0.009092 | 0.009964
m1 = 0.00301 | – | 0.004382 | 0.005065 | 0.00579 | 0.006555 | 0.007356 | 0.008178 | 0.009044 | 0.009933
m1 = 0.003696 | – | 0.004364 | 0.005044 | 0.005765 | 0.006518 | 0.007314 | 0.008146 | 0.009009 | 0.009892
m1 = 0.004538 | – | 0.004345 | 0.005022 | 0.005734 | 0.006493 | 0.007285 | 0.008112 | 0.008969 | 0.009844
m1 = 0.005464 | 997.441 | 0.004332 | 0.004993 | 0.005707 | 0.006462 | 0.007251 | 0.008073 | 0.008927 | 0.009798
m1 = 0.09872 | 1004.12 | – | – | – | – | – | – | – | –

O=C([O-])c1ccccc1.[Na+] [sodium benzoate] + O
Details | mass density, 298.15 K [kg/m3] | molar conductivity, 278.15 K [S·m2/mol] | molar conductivity, 283.15 K [S·m2/mol] | molar conductivity, 288.15 K [S·m2/mol] | molar conductivity, 293.15 K [S·m2/mol] | molar conductivity, 298.15 K [S·m2/mol] | molar conductivity, 303.15 K [S·m2/mol] | molar conductivity, 308.15 K [S·m2/mol] | molar conductivity, 313.15 K [S·m2/mol]
m1 = 0.0002136 | – | 0.004828 | 0.005584 | 0.006384 | 0.007233 | 0.00812 | 0.009043 | 0.01 | 0.01098
m1 = 0.0004649 | – | 0.00479 | 0.005542 | 0.006339 | 0.007182 | 0.008063 | 0.008982 | 0.009936 | 0.01091
m1 = 0.0007334 | – | 0.004765 | 0.005514 | 0.006308 | 0.007149 | 0.008027 | 0.00894 | 0.009881 | 0.01085
m1 = 0.0009986 | – | 0.004746 | 0.005493 | 0.006283 | 0.007122 | 0.007986 | 0.008891 | 0.009829 | 0.0108
m1 = 0.001299 | – | 0.00473 | 0.005474 | 0.006253 | 0.007089 | 0.007958 | 0.00886 | 0.009801 | 0.01078
m1 = 0.0016 | – | 0.004708 | 0.005448 | 0.006234 | 0.007064 | 0.007933 | 0.008837 | 0.00977 | 0.01073
m1 = 0.001996 | – | 0.00469 | 0.005428 | 0.006211 | 0.007037 | 0.007901 | 0.008801 | 0.009733 | 0.01071
m1 = 0.002488 | – | 0.004671 | 0.005407 | 0.00619 | 0.00701 | 0.007872 | 0.00877 | 0.009663 | 0.01063
m1 = 0.003107 | – | 0.004649 | 0.00538 | 0.006164 | 0.006978 | 0.007811 | 0.008706 | 0.009625 | 0.01059
m1 = 0.003832 | – | 0.004634 | 0.005362 | 0.006129 | 0.006945 | 0.007796 | 0.008683 | 0.009598 | 0.01055
m1 = 0.00495 | 997.26 | 0.004604 | 0.00532 | 0.006084 | 0.006895 | 0.007742 | 0.008623 | 0.009539 | 0.01048
m1 = 0.08466 | 1001.94 | – | – | – | – | – | – | – | –

Reference: the NIST ThermoML archive (doi:10.1021/je200836x)
